SMILES strings stand for the structures.

T1 sequence (Q9H228 whole entry): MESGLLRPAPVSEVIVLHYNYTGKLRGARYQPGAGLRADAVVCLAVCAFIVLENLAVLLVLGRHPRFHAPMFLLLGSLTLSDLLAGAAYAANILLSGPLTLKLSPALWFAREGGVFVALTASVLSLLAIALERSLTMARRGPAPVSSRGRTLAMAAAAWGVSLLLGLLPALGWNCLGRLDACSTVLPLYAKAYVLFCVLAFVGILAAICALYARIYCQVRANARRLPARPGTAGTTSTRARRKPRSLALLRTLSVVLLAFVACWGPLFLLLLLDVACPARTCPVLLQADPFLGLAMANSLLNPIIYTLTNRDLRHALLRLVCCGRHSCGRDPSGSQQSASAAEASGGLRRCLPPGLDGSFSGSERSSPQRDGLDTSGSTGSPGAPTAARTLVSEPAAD

The assay concerns the target T1, S1P5 receptors (Homo sapiens, UniProt Q9H228).
T1 construct: expressed in transfected cells; host or cells: CHO cells (membranes)
Nature of the assay: [35S]-GTPγS binding assay on CHO-S1P5 membranes (S1P5 agonism). Format: biochemical. The conditions noted are these: membranes of CHO cells expressing recombinant S1P5; measure of S1P5 agonism. As to the method: CHO cells expressing recombinant S1P5 receptors were cultured in 500 cm^2 culture trays and, once confluent, rinsed and detached with cell-lifting buffer (10 mM HEPES, 154 mM NaCl, 6.85 mM EDTA, pH 7.4). Cells were then pelleted by centrifugation, resuspended, and homogenized in membrane preparation buffer (10 mM HEPES and 10 mM EDTA, pH 7.4) using a Polytron PT 1200E homogenizer (Kinematica, Luzern, Switzerland). Cellular proteins were pelleted by centrifugation at 48,000×g at 4° C. for 30 minutes. The resulting supernatant was discarded, and the pellet was re-suspended again in membrane preparation buffer, homogenized for a second time, and then centrifuged again as described above. The final cellular protein pellet was suspended in ice cold resuspension buffer (10 mM HEPES and 0.1 mM EDTA, pH 7.4), divided into aliquots, and stored at −80° C. until use.
Functional binding assays for [^35S]-GTPγS were performed in 96-well non-binding surface plates with a final volume of 200 μL. The test compounds were serially diluted in DMSO and added to assay plates using a Tecan D300E digital printer with a total volume of 0.4 μL. The control sphingosine-1-phosphate (SIP) was prepared separately by preparing a 400 µM stock solution from a 100 nmol pellet of S1P in 10 mM Na2CO3 with 2% β-cyclodextrin. The serial dilution of S1P was done using complete assay buffer (20 mM HEPES, 10 mM MgCl2, 100 mM NaCl, 1 mM EDTA, 0.1% fatty acid free bovine serum albumin (BSA), and 30 μg/mL saponin, pH 7.4) and transferred to wells already containing 0.4 μL DMSO. All the wells were then loaded to a total volume of 40 μL of complete assay buffer, except the non-specific binding (NSB) wells. For NSB wells, 40 μL/well of 50 μM GTPγS (Sigma Aldrich, cat #G8634, St. Louis, MO) was added to wells containing 0.4 μL of DMSO. The assay was started by the addition of 120 μL/well of CHO-SIP receptor membrane solution containing 40 μg/mL of membrane protein, 16.67 μM guanosine diphosphate (GDP; Sigma Aldrich, cat #G7127, St. Louis, MO), and 2.5 mg/mL of WGA PVT SPA beads in complete buffer. Assay plates were then sealed and incubated at room temperature with gentle agitation for 30 minutes. Next, 40 μL/well of 1 nM of [^35S]-GTPγS (PerkinElmer, cat #NEG030X^250UC, Waltham, MA) in basic assay buffer (20 mM HEPES, 10 mM MgCl2, 100 mM NaCl, and 1 mM EDTA, pH7.4) was added to the assay plates to yield a final concentration of […] and the plates were further incubated for 40 minutes at room temperature with gentle agitation. The assay was terminated by centrifugation of the plates at 1000 rpm for 3 minutes using an Eppendorf 5810R centrifuge (Eppendorf, Hamburg, Germany) and G protein bound radioactivity was quantitated using a MicroBeta2 microplate scintillation counter (PerkinElmer, Waltham, MA). As G protein bound radioactivity directly correlates to receptor activation and coupling to the G protein, this assay is a measure of S1P5 agonism.
For `CC1(O)CN(Cc2ccc(C3CN(c4c(Cl)cccc4Cl)C3)cc2)C1` [Compound 31, 1-(4-(1-(2,6-dichlorophenyl)azetidin-3-yl)benzyl)-3-methylazetidin-3-ol], the EC50 (commonly the concentration needed to bring the measured effect to its halfway point) was in the range of 10 to 100 nM. Regarding `Cc1cc(C2CN(c3c(Cl)cccc3Cl)C2)c(C)cc1CN1CC(C)(O)C1` [Compound 56, 1-(4-(1-(2,6-dichlorophenyl)azetidin-3-yl)-2,5-dimethylbenzyl)-3-methylazetidin-3-ol], the EC50 is 10 to 100 nM. Consider `CC1(O)CN(C2CCc3cc(OCc4c(Cl)cccc4Cl)ccc32)C1` (single isomer, unassigned) [Compound 3a, 1-(5-((2,6-dichlorobenzyl)oxy)-2,3-dihydro-1H-inden-1-yl)-3-methylazetidin-3-ol], for which the EC50 lay within 1 to 10 nM. The figure for `Cc1cc2c(cc1-c1ccc(C3CC3)c(Cl)c1)CCC2N1CC(C)(O)C1` (single isomer, unassigned) [Compound 21a, 1-[5-(3-chloro-4-cyclopropyl-phenyl)-6-methyl-indan-1-yl]-3-methyl-azetidin-3-ol] is 10 to 100 nM; for `CC1(O)CN(Cc2ccc(N3CC(c4c(Cl)cccc4Cl)C3)nc2)C1` [Compound 64, 1-((6-(3-(2,6-dichlorophenyl)azetidin-1-yl)pyridin-3-yl)methyl)-3-methylazetidin-3-ol] it is 100 to 1000 nM. The figure for `Cc1cc2c(cc1OCc1c(Cl)cccc1Cl)CCC2N1CC(C)(O)C1` (single isomer, unassigned) [Compound 24a, 1-[5-[(2,6-dichlorophenyl)methoxy]-6-methyl-indan-1-yl]-3-methyl-azetidin-3-ol] is 1 to 10 nM.

In the case of `CC1(O)CN(C2CCc3cc(-c4ccc(C5CC5)c(Cl)c4)ccc32)C1` (single isomer, unassigned) [Compound 5b, 1-[5-(3-chloro-4-cyclopropyl-phenyl)indan-1-yl]-3-methyl-azetidin-3-ol], the EC50 is 10 to 100 nM. The figure for `Cc1cc(N2CC(c3c(Cl)cccc3Cl)C2)c(C)cc1CN1CC(C)(O)C1` [Compound 62, 1-(4-(3-(2,6-dichlorophenyl)azetidin-1-yl)-2,5-dimethylbenzyl)-3-methylazetidin-3-ol] is 1 to 10 nM. The figure for `CC1(O)CN(C2CCc3cc(C#Cc4ccccc4F)ccc32)C1` (single isomer, unassigned) [Compound 1b, 1-[5-[2-(2-fluorophenyl)ethynyl]indan-1-yl]-3-methyl-azetidin-3-ol] is 10 to 100 nM; for `Cc1c(CCc2c(Cl)cccc2Cl)ccc2c1CCC2N1CC(C)(O)C1` (single isomer, unassigned) [Compound 18a, 1-[5-[2-(2,6-dichlorophenyl)ethyl]-4-methyl-indan-1-yl]-3-methyl-azetidin-3-ol] it is 1 to 10 nM. With `CC1(O)CN(Cc2ccc(C#Cc3c(F)cccc3F)cc2)C1` [Compound 28, 1-(4-((2,6-difluoro-phenyl)ethynyl)benzyl)-3-methylazetidin-3-ol], the EC50 was in the range of 100 to 1000 nM. As for `Cc1cc(C2CN(c3ccc(C4CC4)c(Cl)c3)C2)cc(C)c1CN1CC(C)(O)C1` [Compound 46, 1-(4-(1-(3-chloro-4-cyclopropylphenyl)azetidin-3-yl)-2,6-dimethylbenzyl)-3-methylazetidin-3-ol], the figure is 100 to 1000 nM; as for `CC1(O)CN(Cc2ccc(N3CC(c4c(Cl)cccc4Cl)C3)c(F)c2)C1` [Compound 67, 1-(4-(3-(2,6-dichlorophenyl)azetidin-1-yl)-3-fluorobenzyl)-3-methylazetidin-3-ol], 10 to 100 nM; as for `CC1(O)CN(Cc2ccc(C3CN(c4c(Cl)cccc4Cl)C3)cn2)C1` [Compound 59, 1-((5-(1-(2,6-dichlorophenyl)azetidin-3-yl)pyridin-2-yl)methyl)-3-methylazetidin-3-ol], 100 to 1000 nM. `Cc1cc(C2CN(c3c(Cl)cccc3Cl)C2)cc(C)c1CN1CCC(C)(O)CC1` [Compound 34, 1-(4-(1-(2,6-dichlorophenyl)azetidin-3-yl)-2,6-dimethylbenzyl)-4-methylpiperidin-4-ol]: the EC50 was 100 to 1000 nM. For `Cc1cc(-c2ccc(C3CC3)c(Cl)c2)c(C)c2c1C(N1CC(C)(O)C1)CC2` (single isomer, unassigned) [Compound 26a, 1-[5-(3-chloro-4-cyclopropyl-phenyl)-4,7-dimethyl-indan-1-yl]-3-methyl-azetidin-3-ol], the EC50 fell in the range of 1 to 10 nM. The figure for `Cc1cc(C2CN(c3c(Cl)cccc3Cl)C2)cc(Cl)c1CN1CC(C)(O)C1` [Compound 49, 1-(2-chloro-4-(1-(2,6-dichlorophenyl)azetidin-3-yl)-6-methylbenzyl)-3-methylazetidin-3-ol] is 10 to 100 nM; for `Cc1cc(C2CN(c3ccccc3F)C2)cc(C)c1CN1CC(C)(O)C1` [Compound 44, 1-(4-(1-(2-fluorophenyl)azetidin-3-yl)-2,6-dimethylbenzyl)-3-methylazetidin-3-ol] it is 1000 to 10000 nM.

Take `Cc1cc(-c2ccc(C3CC3)c(Cl)c2)cc2c1C(N1CCC(C)(O)C1)CC2` (centres unmarked) [Compound 12, 1-(5-(3-chloro-4-cyclopropylphenyl)-7-methyl-2,3-dihydro-1H-inden-1-yl)-3-methylpyrrolidin-3-ol]: the EC50 fell in the range of 100 to 1000 nM.

Take `Cc1cc(C2CN(c3c(Cl)cccc3Cl)C2)cc(C)c1CN1CC(O)(C(F)(F)F)C1` [Compound 41, 1-(4-(1-(2,6-dichlorophenyl)azetidin-3-yl)-2,6-dimethylbenzyl)-3-(trifluoromethyl) azetidin-3-ol]: the EC50 is 100 to 1000 nM. The figure for `CCc1cc(C2CN(c3c(Cl)cccc3Cl)C2)cc(CC)c1CN1CC(C)(O)C1` [Compound 52, 1-(4-(1-(2,6-dichlorophenyl)azetidin-3-yl)-2,6-diethylbenzyl)-3-methylazetidin-3-ol] is 100 to 1000 nM; for `Cc1c(-c2ccc(C3CC3)c(Cl)c2)ccc2c1CCC2N1CC(C)(O)C1` (single isomer, unassigned) [Compound 16b, 1-[5-(3-chloro-4-cyclopropyl-phenyl)-4-methyl-indan-1-yl]-3-methyl-azetidin-3-ol] it is 1 to 10 nM; for `Cc1c(CCc2c(Cl)cccc2Cl)ccc2c1CCC2N1CC(C)(O)C1` (single isomer, unassigned) [Compound 18b, 1-[5-[2-(2,6-dichlorophenyl)ethyl]-4-methyl-indan-1-yl]-3-methyl-azetidin-3-ol] it is 1 to 10 nM.

As to `CC1(O)CN(Cc2ccc(N3CC(c4c(Cl)cccc4Cl)C3)cn2)C1` [Compound 66, 1-((5-(3-(2,6-dichlorophenyl)azetidin-1-yl)pyridin-2-yl)methyl)-3-methylazetidin-3-ol], the concentration for a half-maximal effect (EC50) lay within 100 to 1000 nM. Consider `Cc1cc(OCc2c(Cl)cccc2Cl)cc2c1C(N1CC(C)(O)C1)CC2` (single isomer, unassigned) [Compound 15a, 1-[5-[(2,6-dichlorophenyl)methoxy]-7-methyl-indan-1-yl]-3-methyl-azetidin-3-ol], for which the EC50 lay in the range of 1 to 10 nM. As for `Cc1cc2c(cc1-c1ccc(C3CC3)c(Cl)c1)CCC2N1CC(C)(O)C1` (single isomer, unassigned) [Compound 21b, 1-[5-(3-chloro-4-cyclopropyl-phenyl)-6-methyl-indan-1-yl]-3-methyl-azetidin-3-ol], the figure is 1 to 10 nM; as for `Cc1cc(C2CN(c3c(Cl)cccc3Cl)C2)cc(C)c1CN1CC(C)(O)C1` [Compound 35, 1-[[4-[1-(2,6-dichlorophenyl)azetidin-3-yl]-2,6-dimethyl-phenyl]methyl]-3-methyl-azetidin-3-ol], 10 to 100 nM; as for `CC1(O)CN(C2CCc3cc(C#Cc4cccc(F)c4)ccc32)C1` (single isomer, unassigned) [Compound 2a, 1-[5-[2-(3-fluorophenyl)ethynyl]indan-1-yl]-3-methyl-azetidin-3-ol], 100 to 1000 nM. On to `CC1(O)CN(Cc2ccc(N3CC(c4c(Cl)cccc4Cl)C3)cc2F)C1` [Compound 65, 1-(4-(3-(2,6-dichlorophenyl)azetidin-1-yl)-2-fluorobenzyl)-3-methylazetidin-3-ol], for which the EC50 is 10 to 100 nM.

The record behind these values is patent US20260022094A1, “Compounds for the Treatment of Neurodegenerative Diseases” (Celgene Corporation, priority 2022, published 2026).
